Experimental data reported in the NIST ThermoML archive (doi:10.1016/j.jct.2004.08.004).
“And” between values parts separate entries of the source, which are not always exact repeats. Equal entries are not always repeated. ± gives the expanded uncertainty stated by the source.

Conditions: Liquid, Transpiration method

CCCCCCCCCC#N [1-decanenitrile]
Conditions | vapor or sublimation pressure [kPa]
295.2 K | 0.00359 ± 0.00018
298.3 K | 0.00484 ± 0.00024
302.2 K | 0.00692 ± 0.00035
305.6 K | 0.00928 ± 0.00046
308.7 K | 0.01188 ± 0.00059
311.7 K | 0.01511 ± 0.00076
313.1 K | 0.01667 ± 0.00083
315.2 K | 0.01966 ± 0.00098
316.2 K | 0.02172 ± 0.0011
319.2 K | 0.02728 ± 0.0014
322.2 K | 0.03317 ± 0.0017
326.3 K | 0.04574 ± 0.0023

CCCCCCCCCCC#N [1-decylcyanide]
Conditions | vapor or sublimation pressure [kPa]
290.3 K | 0.00062 ± 3e-05
298.2 K | 0.00131 ± 7e-05
305.2 K | 0.00255 ± 0.00013
307.2 K | 0.00308 ± 0.00015
309.2 K | 0.00374 ± 0.00019
310.2 K | 0.00402 ± 0.0002
313.2 K | 0.0051 ± 0.00026
314.2 K | 0.00577 ± 0.00029
319.1 K | 0.00834 ± 0.00043
319.2 K | 0.00877 ± 0.00045
322.1 K | 0.01069 ± 0.00055
322.2 K | 0.0113 ± 0.00058
325.2 K | 0.0144 ± 0.00073
325.3 K | 0.01379 ± 0.0007
327.2 K | 0.01646 ± 0.00082
328.2 K | 0.01792 ± 0.0009
331.3 K | 0.02254 ± 0.0011
332.2 K | 0.02447 ± 0.0012
334.2 K | 0.02763 ± 0.0014
337.2 K | 0.03454 ± 0.0017
337.3 K | 0.03505 ± 0.0018
340.3 K | 0.04264 ± 0.0021

CCCCCCCCCCCCCCC#N [1-tetradecyl cyanide]
Conditions | vapor or sublimation pressure [kPa]
336.2 K | 0.00105 ± 5e-05
339.2 K | 0.00137 ± 7e-05
342.1 K | 0.00176 ± 9e-05
345.2 K | 0.00219 ± 0.00011
348.1 K | 0.00287 ± 0.00014
351.2 K | 0.00356 ± 0.00018
354.2 K | 0.00459 ± 0.00023
357.2 K | 0.00567 ± 0.00028
360.2 K | 0.00704 ± 0.00035
363.2 K | 0.00901 ± 0.00045
366.2 K | 0.01122 ± 0.00056
369.1 K | 0.0138 ± 0.00069
372.1 K | 0.017 ± 0.00085

CCCCCCCCCCCCC#N [dodecanecarbonitrile]
Conditions | vapor or sublimation pressure [kPa]
301.2 K | 0.00024 ± 1e-05
313.3 K | 0.00075 ± 4e-05
318.1 K | 0.0012 ± 6e-05
324.1 K | 0.00205 ± 0.0001
327.2 K | 0.0028 ± 0.00014
330.2 K | 0.00364 ± 0.00018
333.1 K | 0.00466 ± 0.00023
336.2 K | 0.00594 ± 0.0003
339.2 K | 0.00754 ± 0.00038
342.1 K | 0.0095 ± 0.00048
345.2 K | 0.01168 ± 0.00058
348.2 K | 0.01466 ± 0.00073
351.2 K | 0.01796 ± 0.0009
354.2 K | 0.02244 ± 0.0011
357.2 K | 0.02764 ± 0.0014
360.2 K | 0.03471 ± 0.0017
363.2 K | 0.04232 ± 0.0021

CCCCCCCCCCCCCCCCC#N [heptadecanenitrile]
Conditions | vapor or sublimation pressure [kPa]
348.2 K | 0.00055 ± 3e-05
351.2 K | 0.00072 ± 4e-05
354.2 K | 0.00093 ± 5e-05
357.2 K | 0.00117 ± 6e-05
360.2 K | 0.00156 ± 8e-05
363.2 K | 0.00201 ± 0.0001
366.2 K | 0.00252 ± 0.00013
369.1 K | 0.00316 ± 0.00016
372.1 K | 0.00402 ± 0.0002
376.2 K | 0.00532 ± 0.00027
379.2 K | 0.00678 ± 0.00034
382.2 K | 0.00824 ± 0.00041
385.2 K | 0.01022 ± 0.00051

CCCCCCC#N [heptanenitrile]
Conditions | vapor or sublimation pressure [kPa]
280.2 K | 0.02893 ± 0.0014
283.2 K | 0.03746 ± 0.0019
286.2 K | 0.04773 ± 0.0024
289.2 K | 0.05977 ± 0.003
292.2 K | 0.07501 ± 0.0037
295.2 K | 0.09393 ± 0.0047
298.2 K | 0.1138 ± 0.0057
301.2 K | 0.1417 ± 0.0071
304.2 K | 0.1723 ± 0.0086
307.2 K | 0.2092 ± 0.011

CCCCCCCCCCCCCCCC#N [hexadecanenitrile]
Conditions | vapor or sublimation pressure [kPa]
345.1 K | 0.00096 ± 5e-05
348.1 K | 0.00128 ± 6e-05
351.2 K | 0.00165 ± 8e-05
354.2 K | 0.00212 ± 0.00011
357.2 K | 0.00262 ± 0.00013
360.2 K | 0.00342 ± 0.00017
363.2 K | 0.00434 ± 0.00022
366.2 K | 0.00532 ± 0.00027
369.2 K | 0.00658 ± 0.00033
372.1 K | 0.00826 ± 0.00041
376.2 K | 0.0112 ± 0.00056
379.2 K | 0.0136 ± 0.00068
382.2 K | 0.01642 ± 0.00082

CCCCCCCCCCCC#N [n-dodecanenitrile]
Conditions | vapor or sublimation pressure [kPa]
298.2 K | 0.00052 ± 3e-05
301.2 K | 0.00071 ± 4e-05
306.1 K | 0.00111 ± 6e-05
312.2 K | 0.00186 ± 9e-05
315.1 K | 0.00239 ± 0.00012
318.2 K | 0.00323 ± 0.00016
319.2 K | 0.0036 ± 0.00018
322.2 K | 0.00462 ± 0.00023
325.2 K | 0.0059 ± 0.0003
328.2 K | 0.00742 ± 0.00037
331.2 K | 0.00936 ± 0.00047
334.2 K | 0.0117 ± 0.00059
337.2 K | 0.01464 ± 0.00073
340.2 K | 0.01821 ± 0.00091
343.2 K | 0.02303 ± 0.0011
346.2 K | 0.02783 ± 0.0014
349.2 K | 0.03419 ± 0.0017
352.3 K | 0.04237 ± 0.0021
355.3 K | 0.05317 ± 0.0027
358.2 K | 0.06363 ± 0.0032
361.2 K | 0.07929 ± 0.004
364.2 K | 0.09431 ± 0.0047
367.1 K | 0.1148 ± 0.0057

CCCCCCCCC#N [nonanenitrile]
Conditions | vapor or sublimation pressure
285.2 K | 0.0039 ± 0.0002 kPa
286.2 K | 0.00449 ± 0.00022 kPa
288.2 K | 0.00519 ± 0.00026 kPa
290.2 K | 0.0064 ± 0.00032 kPa
291.7 K | 0.00714 ± 0.00036 kPa
293.2 K | 0.00797 ± 0.0004 kPa
295.2 K | 0.00992 ± 0.0005 kPa
296.2 K | 0.01052 ± 0.00053 kPa
298.2 K | 0.0124 ± 0.00062 kPa
299.2 K | 0.0135 ± 0.00068 kPa
301.2 K | 0.01585 ± 0.00079 kPa
302.2 K | 0.01722 ± 0.00086 kPa
304.2 K | 0.0198 ± 0.00099 kPa
305.2 K | 0.02231 ± 0.0011 kPa
307.2 K | 0.02482 ± 0.0012 kPa
308.2 K | 0.02855 ± 0.0014 kPa
310.2 K | 0.03154 ± 0.0016 kPa
311.2 K | 0.03619 ± 0.0018 kPa
313.2 K | 0.04037 ± 0.002 kPa
316.2 K | 0.05039 ± 0.0025 kPa and 0.05346 ± 0.0027 kPa
319.2 K | 0.06245 ± 0.0031 kPa
320.2 K | 0.06797 ± 0.0034 kPa
323.2 K | 0.08366 ± 0.0042 kPa

CCCCCCCC#N [octanenitrile]
Conditions | vapor or sublimation pressure
283.2 K | 0.01192 ± 0.0006 kPa
286.2 K | 0.0152 ± 0.00076 kPa
289.2 K | 0.01964 ± 0.00098 kPa
292.2 K | 0.02498 ± 0.0013 kPa
295.2 K | 0.03092 ± 0.0015 kPa
298.2 K | 0.03898 ± 0.0019 kPa
301.2 K | 0.04949 ± 0.0025 kPa and 0.04849 ± 0.0024 kPa
304.2 K | 0.06148 ± 0.0031 kPa
307.1 K | 0.07561 ± 0.0038 kPa
310.2 K | 0.09243 ± 0.0046 kPa and 0.09473 ± 0.0047 kPa

CCCCCCCCCCCCCC#N [tetradecanenitrile]
Conditions | vapor or sublimation pressure [kPa]
327.2 K | 0.00109 ± 5e-05
330.2 K | 0.00139 ± 7e-05
333.2 K | 0.00183 ± 9e-05
336.2 K | 0.00236 ± 0.00012
339.2 K | 0.00306 ± 0.00015
342.1 K | 0.00383 ± 0.00019
345.2 K | 0.00491 ± 0.00025
348.1 K | 0.00628 ± 0.00031
351.2 K | 0.00777 ± 0.00039
354.2 K | 0.00982 ± 0.00049
357.2 K | 0.01221 ± 0.00061
360.2 K | 0.01474 ± 0.00074
363.2 K | 0.01847 ± 0.00092
366.2 K | 0.02305 ± 0.0011
369.2 K | 0.02799 ± 0.0014
